{"source": "patent US12600943B2", "about": "“Innervated organoid compositions and methods of making same” (priority 2019, dated 2026)", "type_in_all_cases": "cell-based, human", "key": {"[1]": {"tested_on": "HCOs+ENCCs explants", "assay": "Electrical-field stimulation (EFS) of explanted innervated HCO kidney grafts"}, "[2]": {"tested_on": "hPSC-derived NC cells", "assay": "In vitro neuronal differentiation of FACS-sorted NC cells, immunocytochemistry", "conditions": "NC^SAG0-10 cells, day 22 of differentiation", "description": "On the other hand, NC^SAG0-10 cells could grow and expand as competently as the control cells. Applicant then examined the differentiation potential of NC^SAG0-10 cells on the basis of their neuronal differentiation capability, as monitored by the expression of pan-neuronal markers (HU, TUJ1 and PGP9.5) and subtype markers, such as tyrosine hydroxylase (TH) for dopaminergic neurons and vasoactive intestinal polypeptide (VIP) for cholinergic neurons, which are the major subtypes of nerve cells found in the ENS.\nAround 40 thousand FACS-enriched NC cells were seeded as droplets on poly-ornithine/laminin/fibronectin (PO/LM/FN)-coated 24 well plate in N2 medium containing 10 ng/ml FGF2, 3 μM CHIR99021 and 10 μM Y-27632. […]\nFor immunocytochemistry, the cells were fixed with 4% paraformaldehyde in PBS at room temperature for 30 min, followed by blocking with 1% bovine serum albumin (BSA) (Thermo Scientific, 23209) with or without 0.1% Triton X-100 (Sigma, T8787) in PBS buffer. […] Quantitative image analysis of differentiated neuronal cultures was performed with ImageJ. A minimum of 4,000 cells were analyzed per sample. Percentages of neuronal cells were measured over the total number of cells (DAPI) and the values reported in bar charts represent the mean±SEM."}, "[3]": {"tested_on": "ENCC-derived neurons in HCO explants", "assay": "Ex vivo neuromuscular coupling test of HCO muscle strips (DMPP stimulation)"}, "[4]": {"tested_on": "HCOs+ENCCs", "assay": "Innervated HCO model, immunostaining of neurons"}, "[5]": {"tested_on": "hPSCs (hPSC-to-NC transition)", "assay": "hPSC-to-NC differentiation, flow cytometry of HNK-1+ p75NTR+ cells", "conditions": "for percentage of HNK-1+ p75NTR+ cells (NC yield): flow cytometry at day 10"}, "[6]": {"tested_on": "hPSCs", "assay": "Early-phase lineage immunocytochemistry during NC induction (SOX2+NANOG-, SNAIL+, TUJ1+/TH+)"}, "[7]": {"tested_on": "hPSC-derived NC cells", "assay": "Single-cell RNA-seq clustering of hPSC-derived NC cells", "conditions": "SAG treatment groups (day 0-4, day 0-10)", "description": "To understand how HH signaling influences the topology of the neuronal differentiation path of NC, Applicant profiled additional 1,146 single-cell transcriptomes of NC cells with the constant (day 0-10) or early-phase (day 0-4) SAG treatment and NC-derived neurons sampled from day 32 of differentiation as shown in FIG. 4A. Together with 392 control NC cells, a total of 1,538 individual cells were sequenced with 5844 median genes and 1.16 million mean confident mapped reads per cell (FIG. 8). […]\nBulk and single-cell (sc) RNA sequencing were performed at the Centre of Genomic Science, The University of Hong Kong. […] Then, 1 μl of cDNA was checked and quantified on an Agilent Bioanalyzer high-sensitivity DNA chip. […] Libraries were checked and quantified on an Agilent Bioanalyzer high-sensitivity DNA chip (size range 150-2000 bp) and by Qubit dsDNA BR (Molecular Probes). […]\nFastq files with paired-end reads were aligned to the ENSEMBL GRCh38 (release 90, https://www.ensembl.org/) human transcriptome using Bowtie2 v2.3.4.1 (Langmead and Salzberg, 2012) with options ‘—sensitive—mp 1,1—np 1—score-min L,0,-0.1-I 1-X 2000—no-mixed—no-discordant-N 1-L 25-k 200’ which allows one mismatch during sequence alignment. Quality control of the reads of each cell was assessed using FastQC v0.11.6 (FIG. 8). Gene expression level was quantified using TPM values generated by RSEM v1.3.0 (Li and Dewey, 2011). […]"}}, "data": [{"compound": "CNC1CCC(N(Cc2cccc(-c3ccncc3)c2)C(=O)c2sc3ccccc3c2Cl)CC1", "note": "(stereo not shown) [SAG]", "values": [{"measurement": "EFS-induced wave-like contractions compared to HCO+ENCC group", "setting": "[1]; HCO+ENCC^SAG0_10 explants (ENCCs derived with SAG day 0-10)", "value": "more profound series of wave-like contractions"}, {"measurement": "numbers of TH+ and VIP+ neurons compared to control", "setting": "[2]", "value": "Significantly greater numbers"}, {"measurement": "contractile responses to DMPP compared to HCO+ENCC", "setting": "[3]; HCO+ENCC^SAG0_10", "value": "stronger contractile responses"}, {"measurement": "mature neurons expressing PGP9.5 and NF vs control", "setting": "[4]; HCO+ENCCs^SAG0_10 explants", "value": "more mature neurons"}, {"measurement": "TUJ1+ and TH+ cells aligned with epithelial cells of HCOs vs control", "setting": "[4]; HCOs with ENCCs^SAG0_10 in vitro (Day 28)", "value": "more TUJ1^+ and TH^+ cells"}, {"measurement": "survival and engraftment efficiency of ENCCs to HCOs", "setting": "[4]; SAG treatment during NC induction", "value": "greatly improves"}, {"measurement": "percentage of HNK-1+ p75NTR+ cells (NC yield)", "setting": "[5]; SAG 1 μM, days 0-10 (constant), untreated 19.6±0.51%", "value": "42.5±9.3", "unit": "%"}, {"measurement": "percentage of HNK-1+ p75NTR+ cells (NC yield)", "setting": "[5]; SAG added 4 days in early phase (day 0-4)", "value": "up to 44.6±9.1%"}, {"measurement": "number of SOX2+NANOG- cells (ectoderm lineage commitment)", "setting": "[6]; brief activation in early phase of NC induction, day 4 of differentiation", "value": "increases the number"}, {"measurement": "formation of NC-like cells (SNAIL+)", "setting": "[6]; longer SAG treatment (4 days)", "value": "emerged as early as day 4"}, {"measurement": "NC-to-neuron transition", "setting": "[6]; prolonged (day 0-10) or late-phase (day 4-10) SAG treatment", "value": "boosted the NC-to-neuron transition"}, {"measurement": "proportion of SAG-specific NC intermediates (Clusters 6 & 7; SOX10-, PHOX2B+, TUBB3high) in total population", "setting": "[7]", "value": "up to 75%"}]}, {"compound": "NC1=N[C@H](O)[C@H]2[C@H]3O[C@]4(O)O[C@@H]([C@@H](O)[C@@]2(N1)[C@@H]4O)[C@]3(O)CO", "note": "[TTX, tetrodotoxin]", "values": [{"measurement": "EFS-induced contractions", "setting": "[1]", "value": "completely inhibited"}, {"measurement": "contractile activity triggered by low-voltage stimulation", "setting": "[1]", "value": "completely inhibited"}, {"measurement": "DMPP-induced muscle contraction", "setting": "[3]", "value": "completely abolished"}]}, {"compound": "CC1=C2C[C@H]3[C@@H](CC=C4C[C@@H](O)CC[C@@]43C)[C@@H]2CC[C@]12O[C@@H]1C[C@H](C)CN[C@H]1[C@H]2C", "note": "[cyclopamine]", "values": [{"measurement": "hPSC-to-NC transition (percentage of HNK-1+p75NTR+ cells)", "setting": "[5]", "value": "dramatically suppressed"}]}]}
